Literature values in patent US9229014B2, “Methods of assessing the need for and the effectiveness of therapy with antioxidants” (priority 2004, dated 2016).

What was measured:
heart and liver tissues = conditions: ADR-induced rats; for serum and tissue levels of LDH, aminotransferases and ALP: comparison with control group
[1] = lipid-soluble antioxidant

COc1cccc2c1C(=O)c1c(O)c3c(c(O)c1C2=O)C[C@@](O)(C(=O)CO)C[C@@H]3O[C@H]1C[C@H](N)[C@H](O)[C@H](C)O1 [ADR, adriamycin]
serum and tissue levels of LDH, aminotransferases and ALP (heart and liver tissues): significantly elevated

CC1=C(/C=C/C(C)=C/C=C/C(C)=C/C=C/C=C(C)/C=C/C=C(C)/C=C/C2=C(C)C[C@@H](O)CC2(C)C)C(C)(C)CCC1 [Beta-Cryptoxanthin]
antioxidant activity relative to vitamin E [1]: 3.1 times higher than vitamin E

N.N.O=C([O-])C1(C(=O)[O-])CCC1.[Pt+2] [Carboplatin]
reduced to oxidized glutathione ratio, antioxidant enzyme activities (inferior colliculus; 4 days after treatment): significantly depressed | nitric oxide and lipid peroxidation, xanthine oxidase, and manganese superoxide dismutase activities (inferior colliculus; not in the cerebellum): significantly increased

CC1=C[C@H](O)CC(C)(C)[C@H]1/C=C/C(C)=C/C=C/C(C)=C/C=C/C=C(C)/C=C/C=C(C)/C=C/C1=C(C)C[C@@H](O)CC1(C)C [Lutein]
antioxidant activity relative to vitamin E [1]: 2.3 times higher than vitamin E

CC(C)=CCC/C(C)=C/C=C/C(C)=C/C=C/C(C)=C/C=C/C=C(C)/C=C/C=C(C)/C=C/C=C(\C)CCC=C(C)C [Lycopene]
antioxidant activity relative to vitamin E [1]: 2.8 times higher than vitamin E

CC1=C(/C=C/C(C)=C/C=C/C(C)=C/C=C/C=C(C)/C=C/C=C(C)/C=C/C2=C(C)C[C@@H](O)CC2(C)C)C(C)(C)C[C@H](O)C1 [Zeaxanthin]
antioxidant activity relative to vitamin E [1]: 2.8 times higher than vitamin E

low molecular weight heparin [LMWH]
cardiac and hepatic lipid peroxidation induced by ADR (heart and liver tissues): decreased | rise in serum CPK (cardiotoxicity) (heart and liver tissues; LMWH treatment): attenuated | serum and tissue levels of LDH, aminotransferases and ALP (heart and liver tissues): prevented the rise
